The kinase profiling compilation of Christmann-Franck et al. (2016)

Tests used:
Assay in all cases: KINOMEscan competition binding
Settings in all cases: compound 10.0 µM
PRKX (human) = PRKX (human) (UniProt P51817)
MAP2K2 (human) = MAP2K2 (human) (UniProt P36507)
CHEK1 (human) = CHEK1 (human) (UniProt O14757)
NTRK2 (human) = NTRK2 (human) (UniProt Q16620)
[1] = tested on: PIK3CA (human), P42336 [E545K]
MARK4 (human) = MARK4 (human) (UniProt Q96L34)
DCLK1 (human) = DCLK1 (human) (UniProt O15075)
[2] = tested on: ABL1 (human), P00519 [Q252H]
MAPK1 (human) = MAPK1 (human) (UniProt P28482)
CDK11B (human) = CDK11B (human) (UniProt P21127)
NUAK1 (human) = NUAK1 (human) (UniProt O60285)
TSSK1B (human) = TSSK1B (human) (UniProt Q9BXA7)
STK32C (human) = STK32C (human) (UniProt Q86UX6)
CDC2L2 (human) = CDC2L2 (human) (UniProt Q9UQ88)
FER (human) = FER (human) (UniProt P16591)
PTK2 (human) = PTK2 (human) (UniProt Q05397)
CDK17 (human) = CDK17 (human) (UniProt Q00537)
IGF1R (human) = IGF1R (human) (UniProt P08069)
BMX (human) = BMX (human) (UniProt P51813)
PDGFRA (human) = PDGFRA (human) (UniProt P16234)
MET (human) = MET (human) (UniProt P08581)
AKT2 (human) = AKT2 (human) (UniProt P31751)
BMPR2 (human) = BMPR2 (human) (UniProt Q13873)
MARK1 (human) = MARK1 (human) (UniProt Q9P0L2)
RIPK1 (human) = RIPK1 (human) (UniProt Q13546)
PAK4 (human) = PAK4 (human) (UniProt O96013)
LIMK2 (human) = LIMK2 (human) (UniProt P53671)
SRMS (human) = SRMS (human) (UniProt Q9H3Y6)
FRK (human) = FRK (human) (UniProt P42685)
MAPK9 (human) = MAPK9 (human) (UniProt P45984)
[3] = tested on: EGFR (human), P00533 [G719C; 746-750 del]
CDK15 (human) = CDK15 (human) (UniProt Q96Q40)
[4] = tested on: ABL1 (human), P00519 [F317I]
PTK6 (human) = PTK6 (human) (UniProt Q13882)
PRKAA1 (human) = PRKAA1 (human) (UniProt Q13131)
YES1 (human) = YES1 (human) (UniProt P07947)
MAP3K11 (human) = MAP3K11 (human) (UniProt Q16584)
MUSK (human) = MUSK (human) (UniProt O15146)
CDK14 (human) = CDK14 (human) (UniProt O94921)
ERBB4 (human) = ERBB4 (human) (UniProt Q15303)
PAK3 (human) = PAK3 (human) (UniProt O75914)
MYO3A (human) = MYO3A (human) (UniProt Q8NEV4)

YES1 (human), sequence (P07947 whole entry, looked up): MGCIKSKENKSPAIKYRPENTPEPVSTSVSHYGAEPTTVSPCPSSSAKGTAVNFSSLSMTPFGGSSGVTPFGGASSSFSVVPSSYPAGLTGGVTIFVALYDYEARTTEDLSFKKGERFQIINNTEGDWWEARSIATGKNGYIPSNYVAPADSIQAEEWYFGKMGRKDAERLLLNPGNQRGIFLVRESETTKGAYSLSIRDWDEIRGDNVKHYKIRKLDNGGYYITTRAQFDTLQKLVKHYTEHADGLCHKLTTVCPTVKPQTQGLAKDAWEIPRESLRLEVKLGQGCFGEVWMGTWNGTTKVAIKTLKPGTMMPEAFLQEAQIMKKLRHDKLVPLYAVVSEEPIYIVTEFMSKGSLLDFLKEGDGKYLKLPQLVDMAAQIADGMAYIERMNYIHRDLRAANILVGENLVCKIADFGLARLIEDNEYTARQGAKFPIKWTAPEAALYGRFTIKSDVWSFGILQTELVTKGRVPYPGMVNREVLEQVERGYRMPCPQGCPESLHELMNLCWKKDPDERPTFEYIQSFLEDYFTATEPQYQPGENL
BMPR2 (human), sequence (Q13873 whole entry, looked up): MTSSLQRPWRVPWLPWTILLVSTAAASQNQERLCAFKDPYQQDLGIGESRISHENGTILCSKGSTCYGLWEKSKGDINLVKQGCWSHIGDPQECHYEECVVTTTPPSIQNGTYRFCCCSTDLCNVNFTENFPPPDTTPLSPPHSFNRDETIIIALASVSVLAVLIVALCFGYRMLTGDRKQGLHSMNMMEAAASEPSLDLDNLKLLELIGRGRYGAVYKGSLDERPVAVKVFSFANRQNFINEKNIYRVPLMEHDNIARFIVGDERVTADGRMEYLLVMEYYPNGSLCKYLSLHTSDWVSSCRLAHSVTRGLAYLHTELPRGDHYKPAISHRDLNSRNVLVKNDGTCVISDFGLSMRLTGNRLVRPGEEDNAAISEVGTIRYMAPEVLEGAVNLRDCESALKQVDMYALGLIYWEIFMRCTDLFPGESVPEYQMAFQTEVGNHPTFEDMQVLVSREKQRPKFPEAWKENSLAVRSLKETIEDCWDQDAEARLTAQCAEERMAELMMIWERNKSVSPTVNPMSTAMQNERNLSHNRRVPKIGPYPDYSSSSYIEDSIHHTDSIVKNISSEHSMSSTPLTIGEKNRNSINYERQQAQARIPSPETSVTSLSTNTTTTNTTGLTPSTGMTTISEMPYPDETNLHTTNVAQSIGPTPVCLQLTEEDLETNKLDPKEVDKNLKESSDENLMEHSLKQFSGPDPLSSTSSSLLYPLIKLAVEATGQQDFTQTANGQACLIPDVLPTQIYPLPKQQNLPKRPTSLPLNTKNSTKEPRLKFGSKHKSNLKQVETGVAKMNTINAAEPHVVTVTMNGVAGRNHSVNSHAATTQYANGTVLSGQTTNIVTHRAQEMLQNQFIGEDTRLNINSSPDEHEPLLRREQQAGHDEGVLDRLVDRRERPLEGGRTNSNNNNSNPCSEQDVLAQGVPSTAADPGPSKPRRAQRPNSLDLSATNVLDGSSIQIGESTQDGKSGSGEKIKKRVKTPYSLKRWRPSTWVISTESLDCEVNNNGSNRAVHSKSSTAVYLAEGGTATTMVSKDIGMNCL
PRKX (human), sequence (P51817 whole entry, looked up): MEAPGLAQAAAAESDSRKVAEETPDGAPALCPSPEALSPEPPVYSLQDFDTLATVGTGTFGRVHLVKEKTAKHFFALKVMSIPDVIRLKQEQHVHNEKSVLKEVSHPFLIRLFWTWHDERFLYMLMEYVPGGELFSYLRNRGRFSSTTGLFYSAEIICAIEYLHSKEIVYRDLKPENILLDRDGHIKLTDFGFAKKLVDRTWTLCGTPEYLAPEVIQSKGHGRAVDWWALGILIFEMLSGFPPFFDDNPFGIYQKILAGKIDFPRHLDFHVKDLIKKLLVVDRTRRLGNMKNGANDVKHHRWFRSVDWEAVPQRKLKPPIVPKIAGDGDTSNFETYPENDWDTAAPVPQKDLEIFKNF
IGF1R (human), sequence (P08069 whole entry, looked up): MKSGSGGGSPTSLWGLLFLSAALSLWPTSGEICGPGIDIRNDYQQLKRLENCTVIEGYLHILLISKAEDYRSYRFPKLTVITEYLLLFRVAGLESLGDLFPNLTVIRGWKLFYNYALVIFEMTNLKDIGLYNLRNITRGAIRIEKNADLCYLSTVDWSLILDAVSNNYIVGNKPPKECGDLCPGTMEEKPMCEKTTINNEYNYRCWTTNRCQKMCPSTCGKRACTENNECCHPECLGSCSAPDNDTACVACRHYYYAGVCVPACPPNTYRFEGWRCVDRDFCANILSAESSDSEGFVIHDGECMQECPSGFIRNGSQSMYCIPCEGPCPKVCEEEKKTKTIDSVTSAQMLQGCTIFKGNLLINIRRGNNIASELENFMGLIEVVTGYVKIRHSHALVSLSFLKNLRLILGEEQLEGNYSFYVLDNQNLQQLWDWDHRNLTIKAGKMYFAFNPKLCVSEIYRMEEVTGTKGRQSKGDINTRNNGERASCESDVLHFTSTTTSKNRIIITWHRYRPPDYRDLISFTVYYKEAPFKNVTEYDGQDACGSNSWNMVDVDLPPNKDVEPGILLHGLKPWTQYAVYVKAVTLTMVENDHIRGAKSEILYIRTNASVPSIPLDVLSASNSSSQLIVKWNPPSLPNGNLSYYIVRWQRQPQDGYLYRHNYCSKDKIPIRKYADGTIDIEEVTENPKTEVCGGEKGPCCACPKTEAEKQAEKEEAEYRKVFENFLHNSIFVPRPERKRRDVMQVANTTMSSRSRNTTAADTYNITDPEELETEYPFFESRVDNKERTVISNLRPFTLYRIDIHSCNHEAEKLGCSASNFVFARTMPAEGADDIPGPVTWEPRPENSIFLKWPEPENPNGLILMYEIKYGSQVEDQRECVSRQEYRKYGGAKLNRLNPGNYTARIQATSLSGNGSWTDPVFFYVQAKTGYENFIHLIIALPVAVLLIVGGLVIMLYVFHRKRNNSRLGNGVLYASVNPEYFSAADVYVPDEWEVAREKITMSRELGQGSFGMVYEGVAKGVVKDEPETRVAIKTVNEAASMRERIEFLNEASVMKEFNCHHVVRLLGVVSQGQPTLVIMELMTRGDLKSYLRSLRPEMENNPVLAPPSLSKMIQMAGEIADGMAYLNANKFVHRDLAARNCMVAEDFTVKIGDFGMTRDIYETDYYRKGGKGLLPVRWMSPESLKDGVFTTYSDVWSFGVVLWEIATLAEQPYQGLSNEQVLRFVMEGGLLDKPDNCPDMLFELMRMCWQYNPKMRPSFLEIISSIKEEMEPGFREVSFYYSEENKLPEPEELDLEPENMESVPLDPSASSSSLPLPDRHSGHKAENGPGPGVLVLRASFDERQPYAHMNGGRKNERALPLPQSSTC
MARK1 (human), sequence (Q9P0L2 whole entry, looked up): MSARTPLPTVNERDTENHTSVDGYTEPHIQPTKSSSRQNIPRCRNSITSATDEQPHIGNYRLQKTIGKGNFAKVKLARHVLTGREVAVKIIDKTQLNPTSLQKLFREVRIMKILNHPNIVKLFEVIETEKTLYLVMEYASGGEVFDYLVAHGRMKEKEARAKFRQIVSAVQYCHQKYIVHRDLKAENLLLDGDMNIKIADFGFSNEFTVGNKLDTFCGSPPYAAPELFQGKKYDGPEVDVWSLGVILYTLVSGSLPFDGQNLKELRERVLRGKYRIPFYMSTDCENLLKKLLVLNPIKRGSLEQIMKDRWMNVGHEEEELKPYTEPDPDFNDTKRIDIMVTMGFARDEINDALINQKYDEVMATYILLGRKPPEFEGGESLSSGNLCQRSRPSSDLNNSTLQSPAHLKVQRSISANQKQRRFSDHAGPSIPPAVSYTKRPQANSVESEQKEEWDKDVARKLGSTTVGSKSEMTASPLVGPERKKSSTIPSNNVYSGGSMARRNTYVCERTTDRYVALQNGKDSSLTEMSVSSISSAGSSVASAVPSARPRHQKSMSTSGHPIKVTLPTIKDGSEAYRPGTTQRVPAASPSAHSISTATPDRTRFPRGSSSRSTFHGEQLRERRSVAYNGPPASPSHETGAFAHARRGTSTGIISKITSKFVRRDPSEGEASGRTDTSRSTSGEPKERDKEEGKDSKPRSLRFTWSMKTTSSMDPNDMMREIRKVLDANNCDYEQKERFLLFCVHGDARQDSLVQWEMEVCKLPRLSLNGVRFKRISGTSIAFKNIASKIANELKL
LIMK2 (human), sequence (P53671 whole entry, looked up): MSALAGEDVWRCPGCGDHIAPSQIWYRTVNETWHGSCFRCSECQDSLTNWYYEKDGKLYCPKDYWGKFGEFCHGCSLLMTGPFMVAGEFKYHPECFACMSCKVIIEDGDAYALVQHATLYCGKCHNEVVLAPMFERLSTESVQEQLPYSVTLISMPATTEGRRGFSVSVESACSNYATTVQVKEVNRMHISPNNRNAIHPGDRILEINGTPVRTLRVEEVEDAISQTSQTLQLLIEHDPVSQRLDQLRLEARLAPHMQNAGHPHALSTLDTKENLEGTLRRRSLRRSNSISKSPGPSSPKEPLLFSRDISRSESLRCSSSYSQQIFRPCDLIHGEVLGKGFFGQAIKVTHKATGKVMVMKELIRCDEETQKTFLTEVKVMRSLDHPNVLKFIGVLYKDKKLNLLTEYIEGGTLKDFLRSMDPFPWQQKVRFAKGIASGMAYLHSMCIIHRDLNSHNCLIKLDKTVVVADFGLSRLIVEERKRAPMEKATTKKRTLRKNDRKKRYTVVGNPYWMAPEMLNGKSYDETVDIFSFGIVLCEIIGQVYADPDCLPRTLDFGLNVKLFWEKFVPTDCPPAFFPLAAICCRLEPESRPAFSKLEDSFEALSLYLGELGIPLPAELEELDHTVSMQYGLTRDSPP

A kinase still bound, per cent of control (PRKX (human)) of 100%, a kinase still bound, per cent of control (MAP2K2 (human)) of 15% and a kinase still bound, per cent of control (CHEK1 (human)) of 2.4% were found for O=C1NC(=O)/C(=C/c2c[nH]c(=O)c(-c3ccc(N4CCNCC4)nc3)c2)S1 in this work. It also gave a kinase still bound, per cent of control (NTRK2 (human)) of 86%, a kinase still bound, per cent of control [1] of 37% and a kinase still bound, per cent of control (MARK4 (human)) of 100%. It also gave a kinase still bound, per cent of control (DCLK1 (human)) of 73%, a kinase still bound, per cent of control [2] of 53% and a kinase still bound, per cent of control (MAPK1 (human)) of 97%. The kinase still bound, per cent of control (CDK11B (human)) was 100%, the kinase still bound, per cent of control (NUAK1 (human)) was 77% and the kinase still bound, per cent of control (TSSK1B (human)) was 2.9%. It also gave a kinase still bound, per cent of control (STK32C (human)) of 100%, a kinase still bound, per cent of control (CDC2L2 (human)) of 95% and a kinase still bound, per cent of control (FER (human)) of 100%. For the same compound, the kinase still bound, per cent of control (PTK2 (human)) was 79%, the kinase still bound, per cent of control (CDK17 (human)) was 85% and the kinase still bound, per cent of control (IGF1R (human)) was 100%. The kinase still bound, per cent of control (BMX (human)) was 94%, the kinase still bound, per cent of control (PDGFRA (human)) was 99% and the kinase still bound, per cent of control (MET (human)) was 97%. The kinase still bound, per cent of control (AKT2 (human)) was 100%, the kinase still bound, per cent of control (BMPR2 (human)) was 19% and the kinase still bound, per cent of control (MARK1 (human)) was 100%. The kinase still bound, per cent of control (RIPK1 (human)) was 82%, the kinase still bound, per cent of control (PAK4 (human)) was 98% and the kinase still bound, per cent of control (LIMK2 (human)) was 82%. It also gave a kinase still bound, per cent of control (SRMS (human)) of 86%, a kinase still bound, per cent of control (FRK (human)) of 90% and a kinase still bound, per cent of control (MAPK9 (human)) of 100%. The kinase still bound, per cent of control [3] was 95%, the kinase still bound, per cent of control (CDK15 (human)) was 50% and the kinase still bound, per cent of control [4] was 100%. For the same compound, the kinase still bound, per cent of control (PTK6 (human)) was 83%, the kinase still bound, per cent of control (PRKAA1 (human)) was 59% and the kinase still bound, per cent of control (YES1 (human)) was 97%. For the same compound, the kinase still bound, per cent of control (MAP3K11 (human)) was 100%, the kinase still bound, per cent of control (MUSK (human)) was 97% and the kinase still bound, per cent of control (CDK14 (human)) was 73%. It also gave a kinase still bound, per cent of control (ERBB4 (human)) of 68%, a kinase still bound, per cent of control (PAK3 (human)) of 86% and a kinase still bound, per cent of control (MYO3A (human)) of 46%.
A kinase still bound, per cent of control (PRKX (human)) of 100%, a kinase still bound, per cent of control (MAP2K2 (human)) of 95% and a kinase still bound, per cent of control (CHEK1 (human)) of 75% were found for COc1cc(N2CCN(C)CC2)ccc1Nc1ncc2c(n1)Nc1ccccc1NC2=O in this work. For the same compound, the kinase still bound, per cent of control (NTRK2 (human)) was 2.4%, the kinase still bound, per cent of control [1] was 100% and the kinase still bound, per cent of control (MARK4 (human)) was 84%. It also gave a kinase still bound, per cent of control (DCLK1 (human)) of 59%, a kinase still bound, per cent of control [2] of 14% and a kinase still bound, per cent of control (MAPK1 (human)) of 94%. For the same compound, the kinase still bound, per cent of control (CDK11B (human)) was 100%, the kinase still bound, per cent of control (NUAK1 (human)) was 63% and the kinase still bound, per cent of control (TSSK1B (human)) was 64%. It also gave a kinase still bound, per cent of control (STK32C (human)) of 100%, a kinase still bound, per cent of control (CDC2L2 (human)) of 100% and a kinase still bound, per cent of control (FER (human)) of 100%. For the same compound, the kinase still bound, per cent of control (PTK2 (human)) was 73%, the kinase still bound, per cent of control (CDK17 (human)) was 93% and the kinase still bound, per cent of control (IGF1R (human)) was 100%. It also gave a kinase still bound, per cent of control (BMX (human)) of 99%, a kinase still bound, per cent of control (PDGFRA (human)) of 91% and a kinase still bound, per cent of control (MET (human)) of 82%. The kinase still bound, per cent of control (AKT2 (human)) was 100%, the kinase still bound, per cent of control (BMPR2 (human)) was 100% and the kinase still bound, per cent of control (MARK1 (human)) was 100%. The kinase still bound, per cent of control (RIPK1 (human)) was 100%, the kinase still bound, per cent of control (PAK4 (human)) was 94% and the kinase still bound, per cent of control (LIMK2 (human)) was 100%. For the same compound, the kinase still bound, per cent of control (SRMS (human)) was 0%, the kinase still bound, per cent of control (FRK (human)) was 93% and the kinase still bound, per cent of control (MAPK9 (human)) was 69%. The kinase still bound, per cent of control [3] was 39%, the kinase still bound, per cent of control (CDK15 (human)) was 58% and the kinase still bound, per cent of control [4] was 65%. For the same compound, the kinase still bound, per cent of control (PTK6 (human)) was 82%, the kinase still bound, per cent of control (PRKAA1 (human)) was 87% and the kinase still bound, per cent of control (YES1 (human)) was 68%. For the same compound, the kinase still bound, per cent of control (MAP3K11 (human)) was 88%, the kinase still bound, per cent of control (MUSK (human)) was 100% and the kinase still bound, per cent of control (CDK14 (human)) was 100%. It also gave a kinase still bound, per cent of control (ERBB4 (human)) of 62%, a kinase still bound, per cent of control (PAK3 (human)) of 82% and a kinase still bound, per cent of control (MYO3A (human)) of 80%.
A kinase still bound, per cent of control (PRKX (human)) of 86%, a kinase still bound, per cent of control (MAP2K2 (human)) of 90% and a kinase still bound, per cent of control (CHEK1 (human)) of 100% were found for CN1CCN(c2ccc(C(=O)Nc3ncc4c(n3)N(C)c3ccccc3C(=O)N4C)cc2)CC1 in this work. The kinase still bound, per cent of control (NTRK2 (human)) was 69%, the kinase still bound, per cent of control [1] was 99% and the kinase still bound, per cent of control (MARK4 (human)) was 91%. For the same compound, the kinase still bound, per cent of control (DCLK1 (human)) was 24%, the kinase still bound, per cent of control [2] was 100% and the kinase still bound, per cent of control (MAPK1 (human)) was 100%. It also gave a kinase still bound, per cent of control (CDK11B (human)) of 100%, a kinase still bound, per cent of control (NUAK1 (human)) of 90% and a kinase still bound, per cent of control (TSSK1B (human)) of 100%. For the same compound, the kinase still bound, per cent of control (STK32C (human)) was 100%, the kinase still bound, per cent of control (CDC2L2 (human)) was 100% and the kinase still bound, per cent of control (FER (human)) was 72%. For the same compound, the kinase still bound, per cent of control (PTK2 (human)) was 100%, the kinase still bound, per cent of control (CDK17 (human)) was 100% and the kinase still bound, per cent of control (IGF1R (human)) was 100%. For the same compound, the kinase still bound, per cent of control (BMX (human)) was 100%, the kinase still bound, per cent of control (PDGFRA (human)) was 100% and the kinase still bound, per cent of control (MET (human)) was 100%. For the same compound, the kinase still bound, per cent of control (AKT2 (human)) was 100%, the kinase still bound, per cent of control (BMPR2 (human)) was 100% and the kinase still bound, per cent of control (MARK1 (human)) was 96%. It also gave a kinase still bound, per cent of control (RIPK1 (human)) of 100%, a kinase still bound, per cent of control (PAK4 (human)) of 100% and a kinase still bound, per cent of control (LIMK2 (human)) of 100%. The kinase still bound, per cent of control (SRMS (human)) was 96%, the kinase still bound, per cent of control (FRK (human)) was 100% and the kinase still bound, per cent of control (MAPK9 (human)) was 100%. For the same compound, the kinase still bound, per cent of control [3] was 100%, the kinase still bound, per cent of control (CDK15 (human)) was 88% and the kinase still bound, per cent of control [4] was 96%. The kinase still bound, per cent of control (PTK6 (human)) was 100%, the kinase still bound, per cent of control (PRKAA1 (human)) was 100% and the kinase still bound, per cent of control (YES1 (human)) was 96%. For the same compound, the kinase still bound, per cent of control (MAP3K11 (human)) was 100%, the kinase still bound, per cent of control (MUSK (human)) was 100% and the kinase still bound, per cent of control (CDK14 (human)) was 100%. For the same compound, the kinase still bound, per cent of control (ERBB4 (human)) was 100%, the kinase still bound, per cent of control (PAK3 (human)) was 79% and the kinase still bound, per cent of control (MYO3A (human)) was 100%.
